Results taken from ChEMBL document CHEMBL1201862, “PubChem BioAssay data set” (2004).
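Compound exposure: 48 hours, 5 concentrations, 96-well plates. Here, GI50 denotes the concentration required for 50% inhibition of growth.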 The source made the active and inactive calls. Rule as the data show it: active = GI50 up to about 1.1 µM and inactive = higher.

How the values were obtained:
Experiment in all cases: NCI-60 cell line screen, 48 h
SR = test system: SR
ACHN = test system: ACHN
MDA-N = test system: MDA-N
NCI-H226 = test system: NCI-H226
HT-29 = test system: HT-29
EKVX = test system: EKVX
HOP-92 = test system: HOP-92
SNB-19 = test system: SNB-19
UO-31 = test system: UO-31
OVCAR-4 = test system: OVCAR-4
TK-10 = test system: TK-10
A549 = test system: A549
786-0 = test system: 786-0
HOP-62 = test system: HOP-62
NCI/ADR-RES = test system: NCI/ADR-RES
MDA-MB-435 = test system: MDA-MB-435
UACC-257 = test system: UACC-257
U-251 = test system: U-251
DLD-1 = test system: DLD-1
XF498 = test system: XF498
CAKI-1 = test system: CAKI-1
SK-MEL-28 = test system: SK-MEL-28
NCI-H23 = test system: NCI-H23
HCC 2998 = test system: HCC 2998
OVCAR-5 = test system: OVCAR-5
OVCAR-3 = test system: OVCAR-3
Hs-578T = test system: Hs-578T
HL-60 = test system: HL-60
LXFL 529 = test system: LXFL 529
SF-268 = test system: SF-268
NCI-H460 = test system: NCI-H460
RXF 631 = test system: RXF 631
RXF 393 = test system: RXF 393
M14 = test system: M14
NCI-H522 = test system: NCI-H522
IGROV-1 = test system: IGROV-1
SK-MEL-2 = test system: SK-MEL-2
SNB-75 = test system: SNB-75
SK-OV-3 = test system: SK-OV-3
M19-MEL = test system: M19-MEL
SK-MEL-5 = test system: SK-MEL-5
CCRF-CEM = test system: CCRF-CEM
HCT-116 = test system: HCT-116
SNB-78 = test system: SNB-78
OVCAR-8 = test system: OVCAR-8
KM12 = test system: KM12
DMS-273 = test system: DMS-273
HCT-15 = test system: HCT-15
SW-620 = test system: SW-620
SF-539 = test system: SF-539
KM-20L2 = test system: KM-20L2
HOP-18 = test system: HOP-18
COLO 205 = test system: COLO 205
BT-549 = test system: BT-549
MCF7 = test system: MCF7
DU-145 = test system: DU-145
T47D = test system: T47D
DMS-114 = test system: DMS-114
UACC-62 = test system: UACC-62
MDA-MB-231 = test system: MDA-MB-231
Malme-3M = test system: Malme-3M
SN12C = test system: SN12C
A498 = test system: A498
PC-3 = test system: PC-3
SF-295 = test system: SF-295
K562 = test system: K562
RPMI-8226 = test system: RPMI-8226
MOLT-4 = test system: MOLT-4
LOX IMVI = test system: LOX IMVI

SMILES: CO[C@H]1C[C@](C)(O)Cc2cc3c(c(O)c21)C(=O)c1c(O)cc2c(c1C3=O)O[C@@H]1O[C@@]2(C)[C@H](O)[C@@H](N(C)C)[C@@H]1O
- GI50 (SR): 0.0282 µM (active)
- GI50 (ACHN): 0.279 µM (active)
- GI50 (MDA-N): 1.85 µM (inactive)
- GI50 (NCI-H226): 0.59 µM (active)
- GI50 (HT-29): 1.94 µM (inactive)
- GI50 (EKVX): 3.55 µM (inactive)
- GI50 (HOP-92): 0.362 µM (active)
- GI50 (SNB-19): 0.434 µM (active)
- GI50 (UO-31): 1.74 µM (inactive)
- GI50 (OVCAR-4): 4.11 µM (inactive)
- GI50 (TK-10): 6.98 µM (inactive)
- GI50 (A549): 0.0908 µM (active)
- GI50 (786-0): 0.524 µM (active)
- GI50 (HOP-62): 0.181 µM (active)
- GI50 (NCI/ADR-RES): 10 µM (inactive)
- GI50 (MDA-MB-435): 1.73 µM (inactive)
- GI50 (UACC-257): 9.73 µM (inactive)
- GI50 (U-251): 0.368 µM (active)
- GI50 (DLD-1): 2.81 µM (inactive)
- GI50 (XF498): 0.147 µM (active)
- GI50 (CAKI-1): 0.151 µM (active)
- GI50 (SK-MEL-28): 5.82 µM (inactive)
- GI50 (NCI-H23): 0.804 µM (active)
- GI50 (HCC 2998): 2.15 µM (inactive)
- GI50 (OVCAR-5): 3.35 µM (inactive)
- GI50 (OVCAR-3): 2.38 µM (inactive)
- GI50 (Hs-578T): 5.25 µM (inactive)
- GI50 (HL-60): 0.115 µM (active)
- GI50 (LXFL 529): 1.96 µM (inactive)
- GI50 (SF-268): 1.22 µM (inactive)
- GI50 (NCI-H460): 0.0295 µM (active)
- GI50 (RXF 631): 0.902 µM (active)
- GI50 (RXF 393): 1.17 µM (inactive)
- GI50 (M14): 1.16 µM (inactive)
- GI50 (NCI-H522): 1.04 µM (active)
- GI50 (IGROV-1): 2.32 µM (inactive)
- GI50 (SK-MEL-2): 2.43 µM (inactive)
- GI50 (SNB-75): 0.653 µM (active)
- GI50 (SK-OV-3): 0.641 µM (active)
- GI50 (M19-MEL): 1.11 µM (active)
- GI50 (SK-MEL-5): 1.16 µM (inactive)
- GI50 (CCRF-CEM): 0.151 µM (active)
- GI50 (HCT-116): 0.652 µM (active)
- GI50 (SNB-78): 3.87 µM (inactive)
- GI50 (OVCAR-8): 0.9 µM (active)
- GI50 (KM12): 1.76 µM (inactive)
- GI50 (DMS-273): 0.215 µM (active)
- GI50 (HCT-15): 1.23 µM
- GI50 (SW-620): 0.55 µM (active)
- GI50 (SF-539): 0.851 µM (active)
- GI50 (KM-20L2): 2.89 µM (inactive)
- GI50 (HOP-18): 0.859 µM (active)
- GI50 (COLO 205): 1.96 µM (inactive)
- GI50 (BT-549): 2.05 µM (inactive)
- GI50 (MCF7): 0.103 µM (active)
- GI50 (DU-145): 0.536 µM (active)
- GI50 (T47D): 0.818 µM (active)
- GI50 (DMS-114): 0.456 µM (active)
- GI50 (UACC-62): 0.738 µM (active)
- GI50 (MDA-MB-231): 1.82 µM (inactive)
- GI50 (Malme-3M): 1.09 µM (active)
- GI50 (SN12C): 0.499 µM (active)
- GI50 (A498): 0.968 µM (active)
- GI50 (PC-3): 0.661 µM (active)
- GI50 (SF-295): 0.284 µM (active)
- GI50 (K562): 1.12 µM (inactive)

SMILES: CN(C)c1n/c(=N/c2cccc(Cl)c2)ss1
- GI50 (SR): 4.12 µM (inactive)
- GI50 (ACHN): 18.4 µM (inactive)
- GI50 (NCI-H226): 34.7 µM (inactive)
- GI50 (HT-29): 18.8 µM (inactive)
- GI50 (EKVX): 23.7 µM (inactive)
- GI50 (HOP-92): 28.1 µM (inactive)
- GI50 (SNB-19): 35.9 µM (inactive)
- GI50 (UO-31): 38.4 µM (inactive)
- GI50 (OVCAR-4): 14.6 µM (inactive)
- GI50 (TK-10): 55.2 µM (inactive)
- GI50 (A549): 22.7 µM (inactive)
- GI50 (786-0): 12.9 µM (inactive)
- GI50 (HOP-62): 68.5 µM (inactive)
- GI50 (UACC-257): 15.6 µM (inactive)
- GI50 (U-251): 11.8 µM (inactive)
- GI50 (DLD-1): 12.1 µM (inactive)
- GI50 (XF498): 16.7 µM (inactive)
- GI50 (CAKI-1): 19.1 µM (inactive)
- GI50 (RPMI-8226): 0.951 µM (active)
- GI50 (SK-MEL-28): 12.1 µM (inactive)
- GI50 (NCI-H23): 12.9 µM (inactive)
- GI50 (HCC 2998): 20.4 µM (inactive)
- GI50 (OVCAR-5): 35 µM (inactive)
- GI50 (HL-60): 3.74 µM (inactive)
- GI50 (LXFL 529): 7.14 µM (inactive)
- GI50 (SF-268): 13.6 µM (inactive)
- GI50 (NCI-H460): 9.2 µM (inactive)
- GI50 (RXF 631): 13.5 µM (inactive)
- GI50 (RXF 393): 16.7 µM (inactive)
- GI50 (M14): 14.6 µM (inactive)
- GI50 (NCI-H522): 1.16 µM (inactive)
- GI50 (IGROV-1): 20.3 µM (inactive)
- GI50 (SK-MEL-2): 16.9 µM (inactive)
- GI50 (SNB-75): 31 µM (inactive)
- GI50 (SK-OV-3): 68.9 µM (inactive)
- GI50 (M19-MEL): 17.1 µM (inactive)
- GI50 (SK-MEL-5): 27.5 µM (inactive)
- GI50 (CCRF-CEM): 0.0405 µM (active)
- GI50 (HCT-116): 11.9 µM (inactive)
- GI50 (SNB-78): 18.1 µM (inactive)
- GI50 (OVCAR-8): 12.9 µM (inactive)
- GI50 (KM12): 17.5 µM (inactive)
- GI50 (MOLT-4): 3.03 µM (inactive)
- GI50 (LOX IMVI): 14.5 µM (inactive)
- GI50 (DMS-273): 13 µM (inactive)
- GI50 (HCT-15): 14.5 µM
- GI50 (SW-620): 5.52 µM (inactive)
- GI50 (SF-539): 18.7 µM (inactive)
- GI50 (KM-20L2): 17.4 µM (inactive)
- GI50 (HOP-18): > 100 µM (inactive)
- GI50 (DMS-114): 11.2 µM (inactive)
- GI50 (UACC-62): 10.8 µM (inactive)
- GI50 (Malme-3M): 14.1 µM (inactive)
- GI50 (SN12C): 12.8 µM (inactive)
- GI50 (A498): 28.1 µM (inactive)
- GI50 (SF-295): 24.1 µM (inactive)
- GI50 (K562): 9.08 µM (inactive)
